# Earlier results, collected in patent US9428458B2, “Substituted pyridoxine-lactam carboxylate-salts” (ALCOBRA LTD., priority 2008, dated 2016).
# Details: ca. 900 mg daily dose administered intravenously
substance,measurement,value
pyridoxine L-2-pyrrolidone-5-carboxylate [metadoxine],side effects associated with the use of metadoxine,nausea and vomiting
